Results reported in patent US6265438A, “Vitamin compatible micronutrient supplement” (Heritage Technologies, LLC, priority 1999, dated 2001).
Read-outs that look alike come from different tables or passages of the source.

How the values were obtained:
[1] = Chick feeding trial: feed intake, body weight, bone ash; format: in vivo; details: chicks fed 3 weeks
Experimental: Feed intake was recorded per pen.
Relative bioavailability estimates were calculated using slope ratios.

[2] = in vivo
Experimental: Chicks were fed the respective basal diets for 21 days. There were six pens each containing six chicks (three male and three female) for each of eight dietary treatments, for a total of 288 birds. Chicks were housed in two Petersime brooder units with stainless steel fittings and maintained on a 24-hour constant light schedule. Tap water containing no detectable zinc and feed were available ad libitum. Feed intake was recorded per pen. At the end of the experiment, birds were weighed individually, killed by cervical dislocation, and right tibia removed and frozen individually for zinc analysis.
Zinc concentrations in basal diet, water, zinc sources, and tibias were determined by flame atomic absorption spectrophotometry (Model 5000 with an AS-50 autosampler, Perkin-Elmer, Norwalk Conn. 06859-0156, Anonymous, 1982. Analytical Methods for Atomic Absorption Spectrophotometry. Perkin-Elmer Corp., Norwalk, Conn.). Diet samples were dried at 105° C. for 12 hours, then were dry ashed at 550° C. for 12 hours, solubilized in HCl, and filtered through 42 Whatman paper. Bones were boiled for approximately 10 minutes in deionized water and cleaned of all soft tissue. Tibias with associated cartilages were dried for 12 hours at 105° C., extracted in a Soxhlet apparatus with petroleum ether for 48 hours prior to ashing, and then solubilized as indicated above. Water was concentrated 10-fold by evaporation on a hotplate. Zinc sources were refluxed for 4 hours in 1:1 (v:v) concentrated HCl--HNO3 and filtered through 42 Whatman paper. Standards were matched for macroelement and acid concentrations as needed.
Data were analyzed by two-way ANOVA with a model that included zinc source, dietary zinc concentration, and their interaction. Each of the six pens were used as experimental units. Body weight, feed intake, and percentage of bone ash were also analyzed by the General Linear Models (GLM) (SAS Institute, 1990. SAS/STAT User's Guide (Release 6.04) SAS Institute Inc., Cary, N.C.) with an LSMEANS statement and PDIFF option to compare treatment means. Multiple linear regression of bone zinc concentration on added dietary zinc concentration was calculated using GLM. Relative bioavailability estimates were calculated using slope ratios.

[3] = Hygroscopicity (weight gain in 90% humidity); format: physicochemical; details: 140 hr
Experimental: Tribasic zinc sulfate can be prepared in a reaction system depicted in FIG. 1. Initially the reactor vessel contained 100 ml of dionized water.
Initially the reactor vessel contained 100 ml of an aqueous solution of ammonium sulfate (400 g/l).

Water solubility = format: physicochemical
[4] = Sandoval et al. (1997), similar sample, cited from earlier work
Camplobacter = assay: Effect of zinc compounds on bacteria (colony count); format: cell-based, DMV strain; details: each of the bacteria tested
E. coli = assay: as above; format: cell-based, DMV strain; details: each of the bacteria tested
Experimental: (§1) A series of 42 test tubes were filled with 7 ml of distilled water, and the pH of the water was adjusted to a pH of 7. Fourteen tubes were selected, and 1 ml of an aqueous stock solution containing DMV (DelMarVa-Delaware, Maryland, Virginia source) strain of E. coli was added to each of the 14 tubes. A second set of 14 tubes was selected. To each tube in this second set was added 1 ml stock solution containing a DMV strain of salmonella. A third set of 14 tubes was then selected, and to each these tubes was added 1 ml of a stock solution containing a DMV strain of camplobacter.
(§2) Two tubes from each of the three sets served as controls, and no zinc compounds were added to these controls. […] The pH of half of the tubes from each set was adjusted to a pH of 2 by the addition of concentrated HCl; the pH of the other half of the tubes was maintained at a pH of 7. Sufficient water was added to each tube to provide a final volume of 10 ml. All the tubes were placed in an incubator that was maintained at 37° C. for three hours.
(§3) After three hours, 0.20 ml was taken from each of the tubes, of which 0.1 ml was used to inoculate a MacConley Ager plate and 0.1 ml was used to inoculate a Blood Ager plate. […] After 24 hours, each late was examined and the number of colonies on each plate was evaluated.

Salmonella = assay: as above; format: cell-based, DMV strain; details: each of the bacteria tested
Experimental: as §1, §2, §3

[5] = 98 ° F., about 3 months, 131400 min, cited from earlier work

| Molecule | Body Weight ([1]; added Zn 200 ppm) | Bone Ash ([1]; added Zn 200 ppm) | Feed Intake ([1]; added Zn 200 ppm) | Body Weight ([1]; added Zn 400 ppm) | Bone Ash ([1]; added Zn 400 ppm) | Feed Intake ([1]; added Zn 400 ppm) | Bioavailability of zinc (in words) [2] | Slope ± SE (regression of bone zinc concentration on added dietary zinc concentration) [2] | Hygroscopicity [3] | other results |
| --- | --- | --- | --- | --- | --- | --- | --- | --- | --- | --- |
| basic zinc sulfate | 585 g | 44.4 ash wt % | 690 g/bird | 599 g | 44.5 ash wt % | 708 g/bird | equal to that of reagent grade zinc sulfate | 0.1200 ± 0.0316 |  |  |
| basic zinc chloride | 592 g | 45.1 ash wt % | 724 g/bird | 563 g | 43.6 ash wt % | 652 g/bird | equal to that of reagent grade zinc sulfate | 0.1273 ± 0.0316 |  |  |
| [Cl-].[Cl-].[Zn+2] [reagent grade zinc chloride, zinc chloride] |  |  |  |  |  |  |  |  | 126.5 % weight gain |  |
| O=S(=O)([O-])[O-].[Cu+2].[Cu+2].[Cu+2].[Cu+2].[OH-].[OH-].[OH-].[OH-].[OH-].[OH-] [tribasic copper sulfate] |  |  |  |  |  |  |  |  | about 1.73 % weight gain | Water solubility (Water solubility): about 430 mg Cu per liter |
| [O]=[Zn] [zinc oxide] |  |  |  | 588 g | 44.4 ash wt % | 709 g/bird | lower (P<0.05) than that for other sources | 0.0584 ± 0.0309 |  | Relative bioavailability value (slope ratio) ([2]; chicken, 30240 min): 49.0±10.1%; Relative value ± SE (slope ratio of bone zinc regression) ([2]; chicken, 30240 min): 49.0 ± 10.1; 95% Confidence Interval of relative value [2]: 28.7-69.2; Solubility in HCl ([4]; 60 min): 99%; Solubility in citric acid ([4]; 60 min): 69%; Solubility in neutral ammonium citrate ([4]; 60 min): 53%; Solubility in water [4]: insoluble |
| tribasic zinc chloride |  |  |  |  |  |  |  |  |  | Growth rate of bacteria (in words) (Camplobacter): significantly reduced the growth rate; Growth rate of bacteria (in words) (E. coli): significantly reduced the growth rate; Growth rate of bacteria (in words) (Salmonella): significantly reduced the growth rate |
| Cc1ncc(CO)c(CO)c1O [pyridoxine] |  |  |  |  |  |  |  |  |  | Loss of pyridoxine activity ([5]; multi-vitamin premixes containing inorganic trace minerals): about 55%; Loss of pyridoxine activity ([5]; premix containing no trace minerals): about 24% |
| O.O.O.O.O.O.O.O=S(=O)([O-])[O-].[Zn+2] [reagent grade zinc sulfate, zinc sulfate heptahydrate, reference compound] | 574 g | 44.2 ash wt % | 710 g/bird | 559 g | 42.8 ash wt % | 679 g/bird |  | 0.1193 ± 0.0316 | 36.1 % weight gain |  |
| O.O.O.O.O.O=S(=O)([O-])[O-].[Cu+2] [copper sulfate pentahydrate] |  |  |  |  |  |  |  |  | 14.4 % weight gain |  |
| tribasic zinc sulfate |  |  |  |  |  |  |  |  | about 4.65 % weight gain | Water solubility (Water solubility): about 15 mg zinc per liter |
